Assay results reported in patent US20240158394A1, “NEK7 INHIBITORS” (Halia Therapeutics, Inc., priority 2022, published 2024).

Biological target: full-length recombinant human NEK7 (Homo sapiens (Human), UniProt Q8TDX7)
Experiment: NEK7 Enzymatic Assay
Format: biochemical
Details: casein substrate, [33P]-ATP, 2 hours at room temperature
Method: Casein substrate (from bovine milk, hydrolyzed and partially dephosphorylated mixture of α, β and κ caseins, obtained from Sigma Aldrich, catalogue #C4765, diluted in distilled water to a final concentration of 1 mg/mL) and full-length recombinant human NEK7 (expressed by baculovirus in Sf9 insect cells using a N-terminal GST tag, obtained from SignalChem, catalogue #N09-10G, 0.1 μg/μL) were mixed in assay buffer (20 mM HEPES pH 7.5, 10 mM MgCl2, 1 mM EGTA, 0.02% Brij35, 0.02 mg/mL BSA, 0.1 mM Na3VO4, 2 mM DTT, 1% DMSO). Compounds of interest (serial 3-fold dilution in DMSO from 10 μM to 0.5 nM) or vehicle (1% DMSO) were dispensed into the kinase reaction mixture by Acoustic technology (Echo550; nanoliter range). After incubation at room temperature for 20 minutes, the kinase reaction was initiated by addition of [^33P]-ATP (specific activity 10 μCi/μL) and the mixture was incubated at room temperature for 2 hours. The reaction was then stopped by spotting the reaction mixture on strips of phosphocellulose P81 paper. Following washing, the radioactivity of the P81 paper was measured and kinase activity data were expressed as the percent remaining kinase activity in test samples compared to vehicle reactions. IC50 values and curve fits were obtained using Prism (GraphPad Software).

Chain of full-length recombinant human NEK7 (Q8TDX7 whole entry): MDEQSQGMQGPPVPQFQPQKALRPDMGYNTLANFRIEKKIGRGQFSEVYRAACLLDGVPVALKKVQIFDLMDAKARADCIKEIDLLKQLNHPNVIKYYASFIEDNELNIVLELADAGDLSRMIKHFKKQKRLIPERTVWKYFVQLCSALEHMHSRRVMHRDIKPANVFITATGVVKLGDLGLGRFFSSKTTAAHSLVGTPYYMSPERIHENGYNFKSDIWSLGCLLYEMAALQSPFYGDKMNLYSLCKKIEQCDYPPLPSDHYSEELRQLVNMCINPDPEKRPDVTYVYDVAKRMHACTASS

SMILES | IC50 [µM]
CN1CCC(n2cc(-c3ccc(NC(=O)Nc4cc(C5(C(F)(F)F)CC5)on4)c4nccn34)c3c(N)ncnc32)CC1 [Example I-95, 1-(5-(4-amino-7-(1-methyl-piperidin-4-yl)-7H-pyrrolo-[2,3-d]pyrimidin-5-yl)imid-azo[1,2-a]pyridin-8-yl)-3-(5-(1-(trifluoromethyl)cyclo-propyl)isoxazol-3-yl)urea] | 0.2 to 0.5
CC(C)(C)c1cc(NC(=O)Nc2ccc(-c3cn(C4CC4)c4ncnc(N)c34)c3ccncc23)on1 [Example I-5, 1-(5-(4-amino-7-cyclopropyl-7H-pyrrolo[2,3-d]pyrimidin-5-yl)isoquinolin-8-yl)-3-(3-(tert-butyl)isoxazol-5-yl)urea] | < 0.2
CN1CCC(Oc2ccc(NC(=O)Nc3ccc(-c4cn(C5CC5)c5ncnc(N)c45)c4ccoc34)cc2C(F)(F)F)CC1 [Example I-67, 1-(4-(4-amino-7-cyclopropyl-7H-pyrrolo[2,3-d]pyrimidin-5-yl)benzofuran-7-yl)-3-(4-((1-methylpiperidin-4-yl)oxy)-3-(trifluoromethyl)phenyl)urea] | 0.5 to 2
CN1CCC(n2cc(-c3ccc(NC(=O)Nc4ccc(CN5CCN(C)CC5)c(C(F)(F)F)c4)c4nccn34)c3c(N)ncnc32)CC1 [Example I-134, 1-(5-(4-amino-7-(1-methyl-piperidin-4-yl)-7H-pyrrolo-[2,3-d]pyrimidin-5-yl)imidazo-[1,2-a]pyridin-8-yl)-3-(4-((4-methylpiperazin-1-yl)methyl)-3-(trifluoromethyl)phenyl)urea] | 0.2 to 0.5
CN1CCN(Cc2cc(NC(=O)Nc3ccc(-c4cn(C5CC5)c5ncnc(N)c45)n4ccnc34)cc(C(F)(F)F)c2)CC1 [Example I-36, 1-(5-(4-amino-7-cyclopropyl-7H-pyrrolo[2,3-d]pyrimidin-5-yl)imidazo[1,2-a]pyridin-8-yl)-3-(3-((4-methylpiperazin-1-yl)methyl)-5-(trifluorometh-yl)phenyl)urea] | < 0.2
Nc1ncnc2c1c(-c1ccc(NC(=O)Nc3cc(C4(C(F)(F)F)CCC4)on3)c3nccn13)cn2C1CC1 [Example I-33, 1-(5-(4-amino-7-cyclopropyl-7H-pyrrolo[2,3-d]pyrimidin-5-yl)imidazo[1,2-a]pyridin-8-yl)-3-(5-(1-(trifluoromethyl)-cyclobutyl)isoxazol-3-yl)urea] | 0.2 to 0.5
CN1CCN(Cc2ccc(NC(=O)Nc3ccc(-c4cn(C5CC(O)C5)c5ncnc(N)c45)n4ccnc34)cc2C(F)(F)F)CC1 (stereo not drawn) [Example I-132, 1-(5-(4-amino-7-(3-hydroxy-cyclobutyl)-7H-pyrrolo[2,3-d]pyrimidin-5-yl)imidazo[1,2-a]pyridin-8-yl)-3-(4-((4-meth-ylpiperazin-1-yl)methyl)-3-(trifluoromethyl)phenyl)urea] | < 0.2
CCc1cc(NC(=O)Nc2ccc(-c3cn(C4CC4)c4ncnc(N)c34)n3ccnc23)on1 [Example I-15, 1-(5-(4-amino-7-cyclopropyl-7H-pyrrolo[2,3-d]pyrimidin-5-yl)imidazo[1,2-a]pyridin-8-yl)-3-(3-ethylisoxazol-5-yl)-urea] | 0.2 to 0.5
CC(C)n1cc(-c2ccc(NC(=O)Nc3cc(C4(C(F)(F)F)CC4)on3)c3nccn23)c2c(N)ncnc21 [Example I-83, 1-(5-(4-amino-7-isopropyl-7H-pyrrolo[2,3-d]pyrimidin-5-yl)imidazo[1,2-a]pyridin-8-yl)-3-(5-(1-(trifluorometh-yl)cyclopropyl)isoxazol-3-yl)-urea] | < 0.2
CN1CCC(Oc2ccc(NC(=O)Nc3ccc(-c4cn(C5CC5)c5ncnc(N)c45)c4c3OC(C)(C)C4)cc2C(F)(F)F)CC1 [Example I-61, 1-(4-(4-amino-7-cyclopropyl-7H-pyrrolo[2,3-d]pyrimidin-5-yl)-2,2-dimethyl-2,3-dihydrobenzofuran-7-yl)-3-(4-((1-methylpiperidin-4-yl)-oxy)-3-(trifluoromethyl)phen-yl)urea] | > 2
Nc1ncnc2c1c(-c1ccc(NC(=O)Nc3cc(C4(C(F)(F)F)CC4)no3)c3ncccc13)cn2C1CC1 [Example I-3, 1-(5-(4-amino-7-cyclopropyl-7H-pyrrolo[2,3-d]pyrimidin-5-yl)quinolin-8-yl)-3-(3-(1-(trifluoromethyl)cyclopropyl)-isoxazol-5-yl)urea] | > 2
CC(C)(c1cc(NC(=O)Nc2ccc(-c3cn(C4CC4)c4ncnc(N)c34)n3ccnc23)on1)C(F)(F)F [Example I-21, 1-(5-(4-amino-7-cyclopropyl-7H-pyrrolo[2,3-d]pyrimidin-5-yl)imidazo[1,2-a]pyridin-8-yl)-3-(3-(1,1,1-trifluoro-2-methylpropan-2-yl)isoxazol-5-yl)urea] | < 0.2
COCCN1CCN(Cc2ccc(NC(=O)Nc3ccc(-c4cn(C5CC5)c5ncnc(N)c45)n4ccnc34)cc2C(F)(F)F)CC1 [Example I-40, 1-(5-(4-amino-7-cyclopropyl-7H-pyrrolo[2,3-d]pyrimidin-5-yl)imidazo[1,2-a]pyridin-8-yl)-3-(4-((4-(2-methoxyeth-yl)piperazin-1-yl)methyl)-3-(trifluoromethyl)phenyl)urea] | < 0.2
CC(C)(c1cc(NC(=O)Nc2ccc(-c3cn(C4CC4)c4ncnc(N)c34)n3ccnc23)no1)C(F)(F)F [Example I-31, 1-(5-(4-amino-7-cyclopropyl-7H-pyrrolo[2,3-d]pyrimidin-5-yl)imidazo[1,2-a]pyridin-8-yl)-3-(5-(1,1,1-trifluoro-2-methylpropan-2-yl)isoxazol-3-yl)urea] | < 0.2
Nc1ncnc2c1c(-c1ccc(NC(=O)Nc3cc(C4(C(F)(F)F)CC4)on3)c3nc(C(F)(F)F)cn13)cn2C1CC1 [Example I-46, 1-(5-(4-amino-7-cyclopropyl-7H-pyrrolo[2,3-d]pyrimidin-5-yl)-2-(trifluoromethyl)-imidazo[1,2-a]pyridin-8-yl)-3-(5-(1-(trifluoromethyl)cyclo-propyl)isoxazol-3-yl)urea] | > 2
CC(C)c1cc(NC(=O)Nc2ccc(-c3cn(C4CC4)c4ncnc(N)c34)n3ccnc23)on1 [Example I-16, 1-(5-(4-amino-7-cyclopropyl-7H-pyrrolo[2,3-d]pyrimidin-5-yl)imidazo[1,2-a]pyridin-8-yl)-3-(3-isopropylisoxazol-5-yl)urea] | < 0.2
CN1CCN(Cc2ccc(NC(=O)Nc3ccc(-c4cn(C)c5ncnc(N)c45)n4ccnc34)cc2C(F)(F)F)CC1 [Example I-127, 1-(5-(4-amino-7-methyl-7H-pyrrolo[2,3-d]pyrimidin-5-yl)imidazo[1,2-a]pyridin-8-yl)-3-(4-((4-methylpiperazin-1-yl)methyl)-3-(trifluorometh-yl)phenyl)urea] | < 0.2
CC(C)(O)Cn1cc(-c2ccc(NC(=O)Nc3cc(C4(C(F)(F)F)CC4)on3)c3nccn23)c2c(N)ncnc21 [Example I-86, 1-(5-(4-amino-7-(2-hydroxy-2-methylpropyl)-7H-pyrrolo-[2,3-d]pyrimidin-5-yl)-imidazo[1,2-a]pyridin-8-yl)-3-(5-(1-(trifluoromethyl)-cyclopropyl)isoxazol-3-yl)urea] | < 0.2
Nc1ncnc2c1c(-c1ccc(NC(=O)Nc3cc(C4CC4)no3)c3nccn13)cn2C1CC1 [Example I-119, 1-(5-(4-amino-7-cyclopropyl-7H-pyrrolo[2,3-d]pyrimidin-5-yl)imidazo[1,2-a]pyridin-8-yl)-3-(3-cyclopropylisoxazol-5-yl)urea] | 0.2 to 0.5
CCN1CCC(Oc2ccc(NC(=O)Nc3ccc(-c4cn(C5CC5)c5ncnc(N)c45)c4cnoc34)cc2C(F)(F)F)CC1 [Example I-125, 1-(4-(4-amino-7-cyclopropyl-7H-pyrrolo[2,3-d]pyrimidin-5-yl)benzo[d]isoxazol-7-yl)-3-(4-((1-ethylpiperidin-4-yl)oxy)-3-(trifluoromethyl)phenyl)urea] | 0.2 to 0.5
CC1(C)Cc2c(-c3cn(C4CC4)c4ncnc(N)c34)ccc(NC(=O)Nc3cc(C4(C(F)(F)F)CC4)on3)c2O1 [Example I-59, 1-(4-(4-amino-7-cyclopropyl-7H-pyrrolo[2,3-d]pyrimidin-5-yl)-2,2-dimethyl-2,3-dihydrobenzofuran-7-yl)-3-(5-(1-(trifluoromethyl)cyclo-propyl)isoxazol-3-yl)urea] | 0.2 to 0.5
CC(C)n1cc(-c2ccc(NC(=O)Nc3ccc(OC4CCN(C)CC4)c(C(F)(F)F)c3)c3nccn23)c2c(N)ncnc21 [Example I-135, 1-(5-(4-amino-7-isopropyl-7H-pyrrolo[2,3-d]pyrimidin-5-yl)imidazo[1,2-a]pyridin-8-yl)-3-(4-((1-methylpiperidin-4-yl)oxy)-3-(trifluoromethyl)-phenyl)urea] | < 0.2
CCN1CCN(Cc2ccc(NC(=O)Nc3ccc(-c4cn(C5CC5)c5ncnc(N)c45)c4c3OCC4)cc2C(F)(F)F)CC1 [Example I-54, 1-(4-(4-amino-7-cyclopropyl-7H-pyrrolo[2,3-d]pyrimidin-5-yl)-2,3-dihydrobenzofuran-7-yl)-3-(4-((4-ethylpiperazin-1-yl)methyl)-3-(trifluorometh-yl)phenyl)urea] | < 0.2
Cc1cc(NC(=O)Nc2ccc(-c3cn(C4CC4)c4ncnc(N)c34)n3ccnc23)no1 [Example I-24, 1-(5-(4-amino-7-cyclopropyl-7H-pyrrolo[2,3-d]pyrimidin-5-yl)imidazo[1,2-a]pyridin-8-yl)-3-(5-methylisoxazol-3-yl)urea] | > 2
